Data set [1] is described as follows: Particle size distribution. The class given is physicochemical.
The conditions of data set [2]: cited from earlier work.
The conditions of data set [3]: as mentioned in WO2008/069327 A1; cited from earlier work.

The values below come from patent US10633372B2, “Process for the preparation of amorphous (1S)-1,5-anhydro-1-[3-[[5-(4 fluorophenyl)-2-thienyl]-4-methylphenyl]-D-glucitol and its polymorphs thereof” (MSN LABORATORIES PRIVATE LIMITED, priority 2015, dated 2020).

As for `Cc1ccc([C@@H]2O[C@H](CO)[C@@H](O)[C@H](O)[C@H]2O)cc1Cc1ccc(-c2ccc(F)cc2)s1` [Example-2, (1S)-1,5-anhydro-1-[3-[[5-(4-fluorophenyl)-2-thienyl]methyl]-4-methylphenyl]-D-glucitol], in data set [1], the “Particle size distribution D(0.1)” value is listed as 3.29 μm, the “Particle size distribution D(0.5)” value amounted to 7.69 μm and the “Particle size distribution D(0.9)” value is 14.5 μm.
With `Cc1ccc([C@@H]2O[C@H](CO)[C@@H](O)[C@H](O)[C@H]2O)cc1Cc1ccc(-c2ccc(F)cc2)s1` [Example-4, (1S)-1,5-anhydro-1-[3-[[5-(4-fluorophenyl)-2-thienyl]methyl]-4-methylphenyl]-D-glucitol], in data set [1], the “Particle size distribution D(0.1)” value was found to be 28.7 μm, the “Particle size distribution D(0.5)” value was found to be 61.4 μm and the “Particle size distribution D(0.9)” value amounted to 116.4 μm.
For `Cc1ccc([C@@H]2O[C@H](CO)[C@@H](O)[C@H](O)[C@H]2O)cc1Cc1ccc(-c2ccc(F)cc2)s1` [amorphous canagliflozin, (1S)-1,5-anhydro-1-[3-[[5-(4-fluorophenyl)-2-thienyl]methyl]-4-methylphenyl]-D-glucitol], in data set [2] (DVS, two cycles, appearance changed as humidity increased from 70% to 90% RH), the “physical change between the sorption/desorption cycle” value was “conversion or partial conversion from the amorphous state to a crystalline state”. In addition, the “hygroscopic nature confirmed by Dynamic vapor sorption (DVS) analysis” value in data set [2] (amorphous canagliflozin prepared per US'487 A1 (toluene solution into n-heptane)) is reported as “hygroscopic”. The “stability and handling of amorphous form” value in data set [3] is “suffers from stability and handling issues such as poor filterability”.
